Assay results: patent publication US12435092B2, “Substituted imidazo[1,2-A]quinazolines as inhibitors of PARG” (858 Therapeutics, Inc., priority 2022, dated 2025)

Target: T1, cellular PARG (Homo sapiens, UniProt Q86W56)
T1 construct: endogenous in cells; host or cells: HeLa
Assay: Nuclear PAR accumulation assay (immunofluorescence high-content imaging)
Assay type: cell-based
Settings: HeLa cells, 1 hour compound treatment then MMS 50 μg/mL for an additional hour
Method: Compound IC50 values for inhibition of cellular PARG were determined using an immunofluorescence high-content imaging assay for nuclear PAR accumulation. HeLa cells were plated at 15,000 cells/well in a 96-well plate the day before compound treatment and then treated with varying concentrations of test compound and incubated for 1 hour at 37° C.+5% CO2. Following test compound treatment, methylmethane sulfonate (MMS) was added to a final concentration of 50 μg/mL and the cells were incubated for an additional hour. Following treatment, the cells were fixed with ice cold 95% methanol and the plates sealed and placed at −20° C. for 15 minutes. The cells were then washed once with phosphate buffered saline (PBS) and permeabilized with 0.1% Triton-X 100 for 20 minutes at room temperature. The cells were again washed once with PBS and incubated with an anti-poly-ADP ribose (PAR) monoclonal antibody (Millipore Part #AM80 clone 10H) diluted 1:1,000 in 5% fetal bovine serum +0.1% Tween-20+PBS overnight at 4° C. The cells were then washed three times with PBS before incubation with a fluorescently conjugated goat anti-mouse antibody (Invitrogen A32723) diluted 1:500 in 5% FBS+0.1% Tween-20+PBS for 1 hour at room temperature. The cells were again washed three times with PBS and the nuclei labeled by incubating with 1 μg/mL DAPI (4′,6-diamidino-2-phenylindole). Nuclear PAR accumulation was evaluated using high-content fluorescence microscopy. Four fields for each well were acquired at 20× magnification resulting in at least 1,000 cells analyzed per well. Using high-content software (CellReporterXpress) the nuclei were detected and segmented using the DAPI channel and the fluorescence intensity of the PAR-Alexa 488 channel was quantified within the nuclei regions. Both the average intensity per nucleus and percent PAR positive cells were quantified. Percent PAR positive cells were identified by having greater anti-PAR labeling above the threshold set with vehicle DMSO treated control cells. Percent inhibition of PARG by test compounds was calculated by normalizing the data to the 0.1% DMSO and reference compound control values, which represent 0% and 100% inhibition of enzymatic activity, respectively. Concentration-response-curves and IC50 values were generated using four parameter logistic curve fit software.

T1 sequence (Q86W56 whole entry): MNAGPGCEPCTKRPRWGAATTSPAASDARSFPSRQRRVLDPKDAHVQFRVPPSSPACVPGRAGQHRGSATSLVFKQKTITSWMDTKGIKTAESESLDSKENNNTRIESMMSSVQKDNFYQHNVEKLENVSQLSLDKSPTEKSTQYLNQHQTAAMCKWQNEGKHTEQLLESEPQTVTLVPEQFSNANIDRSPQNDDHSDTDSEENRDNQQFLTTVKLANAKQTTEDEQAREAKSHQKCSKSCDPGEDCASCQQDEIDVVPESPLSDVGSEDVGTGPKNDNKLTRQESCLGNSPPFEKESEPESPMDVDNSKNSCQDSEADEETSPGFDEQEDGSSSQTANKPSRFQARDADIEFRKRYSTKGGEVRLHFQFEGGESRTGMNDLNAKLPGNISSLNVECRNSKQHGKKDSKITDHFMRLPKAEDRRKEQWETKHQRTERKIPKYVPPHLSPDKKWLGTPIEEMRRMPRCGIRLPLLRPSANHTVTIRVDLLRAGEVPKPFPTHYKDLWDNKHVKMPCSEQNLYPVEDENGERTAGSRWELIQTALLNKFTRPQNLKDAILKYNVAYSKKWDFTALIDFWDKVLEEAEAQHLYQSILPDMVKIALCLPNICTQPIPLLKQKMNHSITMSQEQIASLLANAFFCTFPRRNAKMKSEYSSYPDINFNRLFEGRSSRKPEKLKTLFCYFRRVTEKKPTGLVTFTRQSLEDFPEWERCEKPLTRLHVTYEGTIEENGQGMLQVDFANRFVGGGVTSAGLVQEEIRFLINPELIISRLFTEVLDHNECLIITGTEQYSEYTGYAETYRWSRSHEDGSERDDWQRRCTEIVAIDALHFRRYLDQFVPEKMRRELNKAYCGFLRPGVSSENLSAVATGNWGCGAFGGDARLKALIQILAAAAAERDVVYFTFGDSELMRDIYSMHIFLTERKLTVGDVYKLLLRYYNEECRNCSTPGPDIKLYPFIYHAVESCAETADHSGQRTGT

Structure (SMILES)	IC50
CCN1C(=O)c2cc(S(=O)(=O)NC3(C)CC3)ccc2N2C1=NC[C@H]2C(C)C [Example 38, (R)-4-ethyl-1-isopropyl-N-(1-methylcyclopropyl)-5-oxo-1,2,4,5-tetrahydroimidazo[1,2-a]quinazoline-7-sulfonamide]	100 to 1000 nM
CC(C)[C@H]1CN=C2N(Cc3cnn(C)c3)C(=O)c3cc(S(=O)(=O)NC4(C)CC4)ccc3N21 [Example 39, (S)-1-isopropyl-4-((1-methyl-1H-pyrazol-4-yl)methyl)-N-(1-methylcyclopropyl)-5-oxo-1,2,4,5-tetrahydroimidazo[1,2-a]quinazoline-7-sulfonamide]	1000 to 10000 nM
CC(C)[C@@H]1CN=C2N(Cc3cnn(C)c3)C(=O)c3cc(S(=O)(=O)NC4(C)CC4)ccc3N21 [Example 40, (R)-1-isopropyl-4-((1-methyl-1H-pyrazol-4-yl)methyl)-N-(1-methylcyclopropyl)-5-oxo-1,2,4,5-tetrahydroimidazo[1,2-a]quinazoline-7-sulfonamide]	≤ 100 nM
CC[C@H]1CN=C2N(CC)C(=O)c3cc(S(=O)(=O)NC4(C)CC4)ccc3N21 [Example 41, (S)-1,4-diethyl-N-(1-methylcyclopropyl)-5-oxo-1,2,4,5-tetrahydroimidazo[1,2-a]quinazoline-7-sulfonamide]	> 10000 nM
CC[C@@H]1CN=C2N(CC)C(=O)c3cc(S(=O)(=O)NC4(C)CC4)ccc3N21 [Example 42, (R)-1,4-diethyl-N-(1-methylcyclopropyl)-5-oxo-1,2,4,5-tetrahydroimidazo[1,2-a]quinazoline-7-sulfonamide]	100 to 1000 nM
C#CC1CN=C2N(C)C(=O)c3cc(S(=O)(=O)NC4(C)CC4)ccc3N21 (centres unmarked) [Example 43, 1-ethynyl-4-methyl-N-(1-methylcyclopropyl)-5-oxo-1,2,4,5-tetrahydroimidazo[1,2-a]quinazoline-7-sulfonamide]	100 to 1000 nM
CC[C@H]1CN=C2N(Cc3cnn(C)c3)C(=O)c3cc(S(=O)(=O)NC4(C)CC4)ccc3N21 [Example 44, (S)-1-ethyl-4-((1-methyl-1H-pyrazol-4-yl)methyl)-N-(1-methylcyclopropyl)-5-oxo-1,2,4,5-tetrahydroimidazo[1,2-a]quinazoline-7-sulfonamide]	100 to 1000 nM
CC[C@@H]1CN=C2N(Cc3cnn(C)c3)C(=O)c3cc(S(=O)(=O)NC4(C)CC4)ccc3N21 [Example 45, (R)-1-ethyl-4-((1-methyl-1H-pyrazol-4-yl)methyl)-N-(1-methylcyclopropyl)-5-oxo-1,2,4,5-tetrahydroimidazo[1,2-a]quinazoline-7-sulfonamide]	≤ 100 nM
C[C@@H]1CN=C2N(Cc3cnn(C)c3)C(=O)c3cc(S(=O)(=O)NC4(C)CC4)ccc3N21 [Example 46, (R)-1-methyl-4-((1-methyl-1H-pyrazol-4-yl)methyl)-N-(1-methylcyclopropyl)-5-oxo-1,2,4,5-tetrahydroimidazo[1,2-a]quinazoline-7-sulfonamide]	≤ 100 nM
CCN1C(=O)c2cc(S(=O)(=O)NC3(C)CC3)ccc2N2C1=NC[C@H]2C [Example 47, (R)-4-ethyl-1-methyl-N-(1-methylcyclopropyl)-5-oxo-1,2,4,5-tetrahydroimidazo[1,2-a]quinazoline-7-sulfonamide]	100 to 1000 nM
CN1C(=O)c2cc(S(=O)(=O)NC3(C)CC3)ccc2N2C1=NCC2C1CC1 (centres unmarked) [Example 48, 1-cyclopropyl-4-methyl-N-(1-methylcyclopropyl)-5-oxo-1,2,4,5-tetrahydroimidazo[1,2-a]quinazoline-7-sulfonamide]	100 to 1000 nM
CC(C)C1CN=C2N(C)C(=O)c3cc(S(=O)(=O)NC4(C)CC4)ccc3N21 (centres unmarked) [Example 49, 1-isopropyl-4-methyl-N-(1-methylcyclopropyl)-5-oxo-1,2,4,5-tetrahydroimidazo[1,2-a]quinazoline-7-sulfonamide]	1000 to 10000 nM
CCC1CN=C2N(C)C(=O)c3cc(S(=O)(=O)NC4(C)CC4)ccc3N21 (centres unmarked) [Example 50, 1-ethyl-4-methyl-N-(1-methylcyclopropyl)-5-oxo-1,2,4,5-tetrahydroimidazo[1,2-a]quinazoline-7-sulfonamide]	100 to 1000 nM
C[C@@H]1CN=C2N(Cc3ccccc3)C(=O)c3cc(S(=O)(=O)NC4(C)CC4)ccc3N21 [Example 51, (R)-4-benzyl-1-methyl-N-(1-methylcyclopropyl)-5-oxo-1,2,4,5-tetrahydroimidazo[1,2-a]quinazoline-7-sulfonamide]	1000 to 10000 nM
C[C@@H]1CN=C2N(C)C(=O)c3cc(S(=O)(=O)NC4(C)CC4)ccc3N21 [Example 52, (R)-1,4-dimethyl-N-(1-methylcyclopropyl)-5-oxo-1,2,4,5-tetrahydroimidazo[1,2-a]quinazoline-7-sulfonamide]	100 to 1000 nM
C[C@@H]1CN=C2N(Cc3cnn(CCN(C)C)c3)C(=O)c3cc(S(=O)(=O)NC4(C)CC4)ccc3N21 [Example 53, (R)-4-((1-(2-(dimethylamino)ethyl)-1H-pyrazol-4-yl)methyl)-1-methyl-N-(1-methylcyclopropyl)-5-oxo-1,2,4,5-tetrahydroimidazo[1,2-a]quinazoline-7-sulfonamide]	100 to 1000 nM
C[C@@H]1CN=C2N(CC3COC3)C(=O)c3cc(S(=O)(=O)NC4(C)CC4)ccc3N21 [Example 54, (R)-1-methyl-N-(1-methylcyclopropyl)-4-(oxetan-3-ylmethyl)-5-oxo-1,2,4,5-tetrahydroimidazo[1,2-a]quinazoline-7-sulfonamide]	> 10000 nM
C[C@@H]1CN=C2N(Cc3cn(C)nc3C(F)(F)F)C(=O)c3cc(S(=O)(=O)NC4(C)CC4)ccc3N21 [Example 55, (R)-1-methyl-4-((1-methyl-3-(trifluoromethyl)-1H-pyrazol-4-yl)methyl)-N-(1-methylcyclopropyl)-5-oxo-1,2,4,5-tetrahydroimidazo[1,2-a]quinazoline-7-sulfonamide]	≤ 100 nM
Cc1nnc(CN2C(=O)c3cc(S(=O)(=O)NC4(C)CC4)ccc3N3C2=NC[C@H]3C)s1 [Example 56, (R)-1-methyl-4-((5-methyl-1,3,4-thiadiazol-2-yl)methyl)-N-(1-methylcyclopropyl)-5-oxo-1,2,4,5-tetrahydroimidazo[1,2-a]quinazoline-7-sulfonamide]	≤ 100 nM
C[C@@H]1CN=C2N(Cc3cnn(C(F)F)c3)C(=O)c3cc(S(=O)(=O)NC4(C)CC4)ccc3N21 [Example 57, (R)-4-((1-(difluoromethyl)-1H-pyrazol-4-yl)methyl)-1-methyl-N-(1-methylcydopropyl)-5-oxo-1,2,4,5-tetrahydroimidazo[1,2-a]quinazoline-7-sulfonamide]	≤ 100 nM
C#CCN1C(=O)c2cc(S(=O)(=O)NC3(C)CC3)ccc2N2C1=NC[C@H]2C [Example 58, (R)-1-methyl-N-(1-methylcyclopropyl)-5-oxo-4-(prop-2-yn-1-yl)-1,2,4,5-tetrahydroimidazo[1,2-a]quinazoline-7-sulfonamide]	≤ 100 nM
CC#C[C@@H]1CN=C2N(Cc3cnn(C)c3)C(=O)c3cc(S(=O)(=O)NC4(C)CC4)ccc3N21 [Example 59, (R)-4-((1-methyl-1H-pyrazol-4-yl)methyl)-N-(1-methylcyclopropyl)-5-oxo-1-(prop-1-yn-1-yl)-1,2,4,5-tetrahydroimidazo[1,2-a]quinazoline-7-sulfonamide]	≤ 100 nM
CC#C[C@H]1CN=C2N(Cc3cnn(C)c3)C(=O)c3cc(S(=O)(=O)NC4(C)CC4)ccc3N21 [Example 60, (S)-4-((1-methyl-1H-pyrazol-4-yl)methyl)-N-(1-methylcyclopropyl)-5-oxo-1-(prop-1-yn-1-yl)-1,2,4,5-tetrahydroimidazo[1,2-a]quinazoline-7-sulfonamide]	100 to 1000 nM
[2H]C([2H])(c1cnn(C)c1)N1C(=O)c2cc(S(=O)(=O)NC3(C)CC3)ccc2N2C1=NC[C@H]2C [Example 61, (R)-1-methyl-4-((1-methyl-1H-pyrazol-4-yl)methyl-d2)-N-(1-methylcyclopropyl)-5-oxo-1,2,4,5-tetrahydroimidazo[1,2-a]quinazoline-7-sulfonamide]	≤ 100 nM
[2H]C([2H])(c1c(C)noc1C)N1C(=O)c2cc(S(=O)(=O)NC3(C)CC3)ccc2N2C1=NC[C@H]2C [Example 62, (R)-4-((3,5-dimethylisoxazol-4-yl)methyl-d2)-1-methyl-N-(1-methylcyclopropyl)-5-oxo-1,2,4,5-tetrahydroimidazo[1,2-a]quinazoline-7-sulfonamide]	≤ 100 nM
[2H]C([2H])(c1cnc(C)s1)N1C(=O)c2cc(S(=O)(=O)NC3(C)CC3)ccc2N2C1=NC[C@H]2C [Example 63, (R)-1-methyl-N-(1-methylcyclopropyl)-4-((2-methylthiazol-5-yl)methyl-d2)-5-oxo-1,2,4,5-tetrahydroimidazo[1,2-a]quinazoline-7-sulfonamide]	≤ 100 nM
